Earlier results in patent US20140073699A1, “Combination Therapies for the Treatment of Obesity” (Metabolous Pharmaceuticals, Inc., priority 2009, published 2014).

Conditions: literature studies

SMILES	weight loss of body weight for drug compared with placebo
CCCCCCCCCCC[C@@H](C[C@@H]1OC(=O)[C@H]1CCCCCC)OC(=O)[C@H](CC(C)C)NC=O [orlistat]	about 5%
CC(C)CC(N(C)C)C1(c2ccc(Cl)cc2)CCC1 (stereo not drawn) [sibutramine]	about 5%
CCN[C@@H](C)Cc1cccc(C(F)(F)F)c1 [dexfenfluramine]	about 5%
